Laboratory results reported in patent publication US20090142808A1, “NOVEL ENZYME WITH FRUCTOFURANOSIDASE ACTIVITY, WHICH IS USED TO OBTAIN PREBIOTIC OLIGOSACCHARIDES” (Consejo Superior de Investigaciones Cientificas, priority 2005, published 2009).

How the values were obtained:
[1] = test system: X. dendrorhous F-3 fraction (purified fructofuranosidase); assay: Hydrolytic (fructofuranosidase) activity of the purified enzyme F-3 on different substrates; format: biochemical, Xanthophyllomyces dendrorhous; conditions: for Specific activity: purified protein, 1% substrate; for Hydrolytic activity observed: enzyme purified to homogeneity (F-3)
Description: (§1) The cell-free fraction was obtained by centrifugation (F-0) of an X. dendrorhous culture grown at 23° C. and 160 rpm. Fructofuranosidase activity was assayed in this fraction by assessing the release of glucose on different substrates. A colorimetric assay and standard methodology were used. The released glucose was quantified using the glucose oxidase-peroxidase coupled reaction: 0.4 ml of the solution to be assayed was mixed with 0.1 ml of A:B solution (20:1) (A: 0.85 U/ml glucose oxidase, 0.40 U/ml peroxidase in sodium phosphate buffer pH 5; B: 0.6% o-dianisidine). It was incubated for 30 minutes at 37° C. and spectrophotometrically quantified at 450 nm. A standard glucose curve (1 to 100 μg/ml) was used. The fructofuranosidase activity unit is defined in μg/ml min of glucose assessed in the described conditions.
The hydrolytic activity of the enzyme purified to homogeneity (F-3) following the described process was assayed on different substrates.

[2] = test system: extracellular fraction of X. dendrorhous (fructofuranosidase activity); assay: Fructofuranosidase activity of the cell-free extracellular fraction on different carbohydrates (glucose release, glucose oxidase-peroxidase); format: biochemical, Xanthophyllomyces dendrorhous; conditions: for Specific activity: cell-free fraction of culture in maltose minimal medium, 2.37 ODU660 nm; for Fructofuranosidase activity detected: cell-free fraction, compound used as substrate
Description: as §1
The cell-free fraction, obtained by centrifuging an X. dendrorhous culture in maltose minimal medium, grown to an optical density of 2.37 ODU660 nm, was assayed on different substrates.

[3] = test system: Whole X. dendrorhous cells; conditions: cell suspension in phosphate-citrate buffer, 25° C., 11% sucrose; cited from earlier work
[4] = test system: purified X. dendrorhous enzyme (F-3); assay: Fructosyltransferase activity: sucrose 600 g/l incubated with purified enzyme at 45° C., HPLC; format: biochemical, Xanthophyllomyces dendrorhous; conditions: for Composition of the reaction mixture: 45° C., 600 g sucrose/l, 5 U/ml; for composition of the system at the end time: Example 8: 160 hours, 40° C. as printed (heading 45° C.), 200 rpm, FOS = tri- and tetrasaccharides
Description: (§2) A study was carried out using a high concentration of sucrose (600 g/l), conditions which can favor the formation of glycosidic bonds in detriment of hydrolysis. […] On one hand, fructose (peak 1) and glucose (peak 2) are formed as hydrolytic products. On the other hand, two trisaccharides are formed: a majority product (peak 4), which is most likely neokestose [β-D-Fru-(2→6)-α-D-Glu-(1→2)-D-Fru] (since it is the majority transfructosylation product described in X. dendrorhous cultures) and another minor product (peak 5), identified as 1-kestose [α-D-Glu-(1→2)-β-D-Fru(1→2)-β-D-Fru]. Small amounts of different compounds (peaks 6-8) which, taking into account the retention time in the column, are probably tetrasaccharides not yet identified, are furthermore observed. The sucrose which has not yet reacted corresponds to peak 3.
A solution with a high concentration of sucrose (600 g/l) in 0.2 M sodium acetate buffer pH 5.6 was prepared. 5 U/ml of fructofuranosidase (a unit U is the enzymatic activity corresponding to the release of a micromole of reducer sugars per minute using sucrose 100 g/l as a substrate in 0.2 M buffer sodium acetate pH 5.6 at 60° C.) were added. […] Aliquots were extracted at different times, incubated for 5 minutes at 80° C. to inactivate the enzyme, diluted 1:4 (v/v) with water, centrifuged for 5 min at 6000 rpm in an Eppendorf tube with a 0.45 μm filter and analyzed by HPLC liquid chromatography. The profile of the products formed can be seen in FIG. 5. […] Two trisaccharides are obtained: a majority product which is most likely neokestose [β-D-Fru-(2→6)-α-D-Glu-(1→2)-D-Fru] and another minor product identified as 1-kestose [α-D-Glu-(1→2)-β-D-Fru(1→2)-β-D-Fru]. At the end time (160 hours), the composition of the system was: 10.5% fructose, 17.6% glucose, 54.6% sucrose, 17.3% fructooligosaccharides (tri- and tetrasaccharides).

[5] = test system: purified X. dendrorhous enzyme (F-3); assay: Fructosyltransferase activity: sucrose 600 g/l incubated with purified enzyme at 60° C., HPLC; format: biochemical, Xanthophyllomyces dendrorhous
Description: as §2
The total percentage (w/w) of fructooligosaccharides after 160 hours of reaction was the 9.7%, value relating to the total carbohydrates in the medium.

[6] = molecular target: X. dendrorhous fructofuranosidase (Phaffia rhodozyma, UniProt B8YJM2); assay: Kinetic characterization of the purified enzyme on sucrose; format: biochemical, Xanthophyllomyces dendrorhous; conditions: 20 minutes, 20 μl purified enzyme; standard error of the mean ±10
Description: The kinetic characterization of the enzyme purified according to the described process was performed on sucrose. […] The assays were performed in 20 minutes and 20 μl of purified enzyme for each reaction according to the described process.

[7] = 160 h, new catalyst load (5 U) added after 140 hours
[8] = 186 h, new catalyst load (5 U) added after 140 hours
[9] = reaction time 24 h, 600 g sucrose/l, 5 U/ml
[10] = reaction time 140 h, 600 g sucrose/l, 5 U/ml
[11] = reaction time 160 h, 600 g sucrose/l, 5 U/ml

Chain of X. dendrorhous fructofuranosidase (B8YJM2 entry or part of it): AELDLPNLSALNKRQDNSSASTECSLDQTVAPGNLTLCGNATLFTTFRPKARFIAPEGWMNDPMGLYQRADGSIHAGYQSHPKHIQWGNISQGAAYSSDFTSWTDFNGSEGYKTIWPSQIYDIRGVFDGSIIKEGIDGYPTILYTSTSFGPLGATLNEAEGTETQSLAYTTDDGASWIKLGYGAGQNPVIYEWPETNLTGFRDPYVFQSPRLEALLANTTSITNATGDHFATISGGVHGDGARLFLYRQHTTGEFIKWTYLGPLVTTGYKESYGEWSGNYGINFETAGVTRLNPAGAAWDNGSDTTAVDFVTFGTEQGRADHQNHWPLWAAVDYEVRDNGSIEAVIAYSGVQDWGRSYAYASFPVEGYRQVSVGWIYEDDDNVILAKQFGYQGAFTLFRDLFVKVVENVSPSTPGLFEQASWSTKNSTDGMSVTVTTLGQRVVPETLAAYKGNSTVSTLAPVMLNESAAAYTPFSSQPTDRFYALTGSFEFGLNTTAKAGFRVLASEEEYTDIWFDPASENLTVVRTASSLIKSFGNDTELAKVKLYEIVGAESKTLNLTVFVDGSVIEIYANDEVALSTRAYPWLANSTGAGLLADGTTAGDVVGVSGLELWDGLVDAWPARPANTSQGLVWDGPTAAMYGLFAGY

For OC[C@H]1O[C@@](CO)(OC[C@@]2(OC[C@@]3(O[C@H]4O[C@H](CO)[C@@H](O)[C@H](O)[C@H]4O)O[C@H](CO)[C@@H](O)[C@@H]3O)O[C@H](CO)[C@@H](O)[C@@H]2O)[C@@H](O)[C@@H]1O [nistose], which Specific activity [1] is on record?
The Specific activity was 13 U/μg.

What about the Specific activity [2] of the same compound?
The Specific activity was 502 mU/μg.

For OC[C@H]1O[C@@](CO)(OC[C@H]2O[C@H](O[C@]3(CO)O[C@H](CO)[C@@H](O)[C@@H]3O)[C@H](O)[C@@H](O)[C@@H]2O)[C@@H](O)[C@@H]1O [neokestose], which “maximum of neokestose obtained” value [3] is on record?
Its value is 75.1 g/L.

And the “Composition of the reaction mixture” value ([4]; reaction time 24 h)?
The value was 20.5 grams/liter.

And the “Composition of the reaction mixture” value ([4]; reaction time 140 h)?
Its value is 47.4 grams/liter.

What about the “Composition of the reaction mixture” value ([4]; reaction time 160 h) of the same compound?
Its value is 53.3 grams/liter.

And the “Composition of the reaction mixture” value [5, 7]?
Its value is 41.6 grams/liter.

What about the “Composition of the reaction mixture” value [5, 8] of the same compound?
Its value is 43.9 grams/liter.

And the “Composition of the reaction mixture” value [5, 9]?
Its value is 25.8 grams/liter.

And the “Composition of the reaction mixture” value [5, 10]?
The value was 34.3 grams/liter.

And the “Composition of the reaction mixture” value [5, 11]?
Its value is 36.5 grams/liter.

What does the source list for OC[C@H]1O[C@H](OC[C@H]2O[C@H](O[C@]3(CO)O[C@H](CO)[C@@H](O)[C@@H]3O)[C@H](O)[C@@H](O)[C@@H]2O)[C@H](O)[C@@H](O)[C@H]1O [raffinose]?
Specific activity [1]: 8 U/μg; Specific activity [2]: 335 mU/μg

Which “Hydrolytic activity observed” value [1] does the source give for maltotriose here?
Its value is “No activity was observed”.

What about the “Fructofuranosidase activity detected” value [2] of the same compound?
Its value is “No activity was detected”.

Which results are given for OC[C@H]1O[C@H](O[C@@H]2COC(O)(CO)[C@@H](O)[C@@H]2O)[C@H](O)[C@@H](O)[C@@H]1O (some centres unmarked) [leucrose]?
Hydrolytic activity observed [1]: No activity was observed; Fructofuranosidase activity detected [2]: No activity was detected

What does the source list for O=C(CO)[C@@H](O)[C@H](O)[C@H](O)CO [fructose]?
Composition of the reaction mixture ([4]; reaction time 24 h): 19.0 grams/liter; Composition of the reaction mixture ([4]; reaction time 140 h): 63.5 grams/liter; Composition of the reaction mixture ([4]; reaction time 160 h): 65.1 grams/liter; composition of the system at the end time [4]: 10.5%; Composition of the reaction mixture [5, 7]: 56.5 grams/liter; Composition of the reaction mixture [5, 8]: 76.0 grams/liter; Composition of the reaction mixture [5, 9]: 36.8 grams/liter; Composition of the reaction mixture [5, 10]: 40.9 grams/liter; Composition of the reaction mixture [5, 11]: 41.2 grams/liter

Which results are given for OC[C@H]1O[C@H](OC[C@H]2OC(O)(CO)[C@@H](O)[C@@H]2O)[C@H](O)[C@@H](O)[C@@H]1O (some centres unmarked) [palatinose]?
Specific activity [1]: 5 U/μg; Specific activity [2]: 217 mU/μg

Which “Hydrolytic activity observed” value [1] does the source give for OC[C@H]1O[C@H](O[C@H]2[C@H](O)[C@@H](O)C(O)O[C@@H]2CO)[C@H](O)[C@@H](O)[C@@H]1O (mixture of isomers) [maltose] here?
The value was “No activity was observed”.

And the “Fructofuranosidase activity detected” value [2]?
Its value is “No activity was detected”.

With OC[C@H]1O[C@H](O[C@H]2[C@H](O)[C@@H](O)[C@@H](O[C@H]3[C@H](O)[C@@H](O)[C@@H](O[C@H]4[C@H](O)[C@@H](O)[C@@H](O[C@H]5[C@H](O)[C@@H](O)[C@@H](O[C@H]6[C@H](O)[C@@H](O)[C@@H](O[C@H]7[C@H](O)[C@@H](O)C(O)O[C@@H]7CO)O[C@@H]6CO)O[C@@H]5CO)O[C@@H]4CO)O[C@@H]3CO)O[C@@H]2CO)[C@H](O)[C@@H](O)[C@@H]1O (some centres unmarked) [maltoheptose] as the compound, how does the “Hydrolytic activity observed” value [1] read?
Its value is “No activity was observed”.

And the “Fructofuranosidase activity detected” value [2]?
Its value is “No activity was detected”.

Which results are given for O=C[C@H](O)[C@@H](O)[C@H](O)[C@H](O)CO [glucose]?
Composition of the reaction mixture ([4]; reaction time 24 h): 37.8 grams/liter; Composition of the reaction mixture ([4]; reaction time 140 h): 106.8 grams/liter; Composition of the reaction mixture ([4]; reaction time 160 h): 109.3 grams/liter; composition of the system at the end time [4]: 17.6%; Composition of the reaction mixture [5, 7]: 119.5 grams/liter; Composition of the reaction mixture [5, 8]: 131.2 grams/liter; Composition of the reaction mixture [5, 9]: 53.2 grams/liter; Composition of the reaction mixture [5, 10]: 79.3 grams/liter; Composition of the reaction mixture [5, 11]: 84.3 grams/liter

Which “Composition of the reaction mixture” value ([4]; reaction time 24 h) does the source give for OC[C@H]1O[C@@](CO)(OC[C@@]2(O[C@H]3O[C@H](CO)[C@@H](O)[C@H](O)[C@H]3O)O[C@H](CO)[C@@H](O)[C@@H]2O)[C@@H](O)[C@@H]1O [1-kestose] here?
The value was 9.2 grams/liter.

What about the “Composition of the reaction mixture” value ([4]; reaction time 140 h) of the same compound?
Its value is 24.8 grams/liter.

What about the “Composition of the reaction mixture” value ([4]; reaction time 160 h) of the same compound?
The value was 33.5 grams/liter.

And the Specific activity [1]?
Its Specific activity is 41 U/μg.

What about the “Composition of the reaction mixture” value [5, 7] of the same compound?
The value was 23.9 grams/liter.

What about the “Composition of the reaction mixture” value [5, 8] of the same compound?
Its value is 25.8 grams/liter.

And the “Composition of the reaction mixture” value [5, 9]?
Its value is 10.3 grams/liter.

And the “Composition of the reaction mixture” value [5, 10]?
The value was 21.3 grams/liter.

And the “Composition of the reaction mixture” value [5, 11]?
Its value is 21.9 grams/liter.

And the Specific activity [2]?
The Specific activity was 1675 mU/μg.

For OC[C@H]1O[C@@](CO)(O[C@H]2O[C@H](CO)[C@@H](O)[C@H](O)[C@H]2O)[C@@H](O)[C@@H]1O [sucrose], which “Composition of the reaction mixture” value ([4]; reaction time 24 h) is on record?
Its value is 513.4 grams/liter.

What about the “Composition of the reaction mixture” value ([4]; reaction time 140 h) of the same compound?
Its value is 357.5 grams/liter.

What about the “Composition of the reaction mixture” value ([4]; reaction time 160 h) of the same compound?
Its value is 338.9 grams/liter.

And the “composition of the system at the end time” value [4]?
Its value is 54.6%.

And the Km [6]?
Its Km is 4 mM.

And the Vmax [6]?
Its Vmax is 947 μg glucose min^−1.

What about the kcat [6] of the same compound?
Its kcat is 2.35 s⁻¹.

What about the Specific activity [1] of the same compound?
The Specific activity was 675 U/μg.

What about the “Composition of the reaction mixture” value [5, 7] of the same compound?
The value was 358.4 grams/liter.

What about the “Composition of the reaction mixture” value [5, 8] of the same compound?
Its value is 323.1 grams/liter.

And the “Composition of the reaction mixture” value [5, 9]?
The value was 474.0 grams/liter.

And the “Composition of the reaction mixture” value [5, 10]?
The value was 424.2 grams/liter.

What about the “Composition of the reaction mixture” value [5, 11] of the same compound?
Its value is 416.1 grams/liter.

And the Specific activity [2]?
Its Specific activity is 62140 mU/μg.
